# Measurements from patent publication US20110244472A1, “Cancer stem cell immortalization” (priority 2008, published 2011).
# B1: shRNA: doxycycline-inducible small hairpin RNA homologous to the topoisomerase I gene, SEQ ID NO:10, pTRIPZ vector (nucleic acid)
# chain: TGCTGTTGACAGTGAGCGCGCTGATTATAAACCTAAGAAATAGTGAAGCCACAGATGTATTTCTTAGGTTTATAATCAGCATGCCTACTGCCTCGGA
# Assays:
# [1] = tested on: Oct3/4-GFP(+) MCF7 cells vs control Oct3/4-GFP(-) MCF cells; assay: Initial small molecule screen in 384 well plates, CellTiter-Blue cell viability; type: cell-based; conditions: 5 μM, 72 hours
# Protocol: Experiments were performed to determine whether the growth of Oct3/4-GFP(+) MCF cells could be inhibited with novel small molecules. Oct3/4-GFP(+) MCF7 cells were used as the target population. Control cells consisted of Oct3/4-GFP(−)MCF cells (lacking an Oct3/4-GFP cassette) that were infected with a GFP-expressing lentivirus as a way of controlling for GFP expression. Initial screenings were performed in 384 well plates on triplicate samples as follows.
# (§1) First, the cell cultures were prepared by trypsinizing and resuspending the cells in MCF7 culture medium (alpha MEM, 10% FBS, 2 mM Glutamine, 1 mM Sodium Pyruvate, 1 mM non-essential amino acids, 100 U/ml Penicillin/Streptomycin) at a density of 4×10^4/ml. The screen was then performed by (1) diluting compounds to 30 μM using alpha MEM; (2) adding […] of compound-containing solution to each well (which will result in a final concentration of 5 μM); (3) adding 25 μl of cell suspension to each well (1000 cells/well); and (4) incubating the cells with compounds for 72 hours at 37° C., 5% CO2. Cell viability was then assessed using the CellTiter-Blue® assay by Promega, modified as follows. Since there were 30 ul medium in each well, 6 μl CellTiter-Blue was added to each well. The plates were then incubated at 37° C. for 2.5 hours. The plates were then read on a SpectraMax M5 Microplate Reader using the wavelength of excitation 560 nm/emission 590 nm.
# (§2) Then, a secondary set of experiments were performed in 12 well plates in which 2000 cells/well were initially seeded and allowed to attach for one day. The following day (day 0), the medium was replaced with fresh medium containing 0.8 μM of each of these three compounds. Cell counts were then performed manually on triplicate wells over a period of three days. Oct3/4-GFP+ MCF7 cells are represented by the lower, dashed curve in all three panels.
# Oct3/4-GFP+ MCF7 cells = assay: Secondary growth experiment in 12 well plates, manual cell counts; type: cell-based; conditions: 0.8 μM, cell counts over three days, FIG. 11
# Protocol: as §2
# [2] = tested on: non-stem cell and Oct3/4-GFP+ CSCs prepared from three breast cancer cell lines, MCF7, MB231 and MB453; assay: LOPAC screen for CSC-specific inhibitory activity; type: cell-based; conditions: CSCs from at least one of MCF7, MB231, MB453; FIG. 14A
# Protocol: (§3) FIG. 14A-E. Testing various chemical compounds for CSC-specific inhibitory activity in non-stem MCF7, MDA-MB231 or MDA-MB453 or in Oct3/4-GFP+ CSC cells of those same lines. CSC are denoted by solid circles ([…])_ and non-stem cells are denoted by solid squares (▪).
# as §1
# (§4) 1280 compounds from the Library of Pharmacologically Active Compounds (“LOPAC”) were screened for activity against non-stem cell and Oct3/4-GFP+ CSCs prepared from three breast cancer cell lines, MCF7, MB231 and MB453 using methods set forth above.
# [3] = tested on: MDA-MB231 Oct3/4-GFP+ CSC cells; assay: CSC-specific inhibitory activity test, MDA-MB231; type: cell-based; conditions: 4 μM, FIG. 14B
# Source text: as §3, §4
# [4] = tested on: MCF7 Oct3/4-GFP+ CSC cells; assay: CSC-specific inhibitory activity test, MCF7; type: cell-based; conditions: 7 nM, FIG. 14C
# Source text: as §3, §4
# [5] = tested on: MDA-MB453 Oct3/4-GFP+ CSC cells; assay: CSC-specific inhibitory activity test, MDA-MB453; type: cell-based; conditions: 10 nM, FIG. 14D and E
# Source text: as §3, §4
# [6] = tested on: MCF7 cells and Oct3/4-GFP+MCF7 cells; assay: Hoechst 33342 side population (SP) analysis; type: cell-based; conditions: 20 μM Reserpine; MCF7 and Oct3/4-GFP+MCF7 cells; Hoechst 33342 exclusion
# Source text: In other studies, Oct3/4-GFP+MCF7 cells were examined by qRT-PCR for expression of the breast cancer CSC markers CD133 and Oct3/4. After normalizing to GAPDH, the ratios of these transcripts in Oct3/4-GFP+MCF7 cells and non-CSC-MCF7 cells were 6.3 for CD133 and 2.5 for Oct3/4. […] The SP is due to CSCs ability to exclude the dye Hoechst 33342 and reflects high expression of […] transporters such as MDR1 and BRCP (30). […] These fractions could also be reduced by >70% following exposure to 20 μM Reserpine, which inhibits ABC transporters (30). Moreover, the overall mean fluorescence intensity of the entire Oct3/4-GFP+MCF population was two-fold lower than that of the MCF7 population. Thus, based on independent qRT-PCR assessments of CSC gene expression profiles and on uptake/exclusion of Hoechst 33342, one can conclude that the Oct3/4-GFP+MCF7 population consists of highly enriched and stable cells that are unable to differentiate into TACs.
# [7] = tested on: MCF7 cells and Oct3/4-GFP+MCF7 CSCs; assay: Differential chemotherapeutic responses, viable adherent cells by trypan blue exclusion; type: cell-based; conditions: number of viable adherent cells over time, triplicate plates
# Protocol: FIG. 6. Differential chemotherapeutic responses of MCF7 and Oct3/4-GFP+MCF7 cells. 10^5 unfractionated, MCF7 cells (dotted line) or Oct3/4GFP+MCF7 cells (broken line) were seeded into 6 well plates and allowed to achieve ca. 30-50% confluence. The indicated concentrations of adriamycin, etoposide, 5-fluorouracil, cis-platinum, methotrexate, and taxol were then added (day 0). The total number of viable adherent cells was then determined at the indicated times by trypan blue exclusion. […] Note that in most cases Oct4/4-GFP+MCF7 actually grew in the presence of all agents. These experiments were repeated at least two additional times with similar outcomes.
# 5. Differential chemosensitivities of Oct3/4-GFP+MCF7 cells. It is believed that CSCs are more resistant to chemotherapeutic agents than TACs, thus at least partly accounting for the propensity of many tumors to relapse after an initial response (12,27,36). To test this idea, MCF7 cells and Oct3/4-GFP+MCF7 CSCs were exposed to six different chemotherapeutic agents commonly employed to treat breast cancer.
# [8] = tested on: non-stem and CSC versions of MCF7, MDA-MB453 and BTL12 cells; assay: Effect of topoisomerase I shRNA knockdown on cultures of non-stem and CSC cells; type: cell-based; conditions: doxycycline-induced, FIG. 20A-C
# Source text: FIG. 20A-C. Evaluation of the effect of doxycycline-inducible shRNA targeting topoisomerase I in non-stem MCF7, MDA-MB453 or BTL12 or in Oct3/4-GFP+ CSC cells of those same lines. (A) MCF7. (B) MDA-MB453. (C) BTL12.
# (§5) To test this hypothesis further, small hairpin RNA (shRNA) was used to knockdown topoisomerase I using a conditional shRNA expression system (pTRIPZ vector-Origene, Inc.), in which expression of the shRNA is induced by doxycycline. The shRNA used had the sequence: […] […] (SEQ ID NO:10, NM_003286).
# [9] = tested on: tumor xenografts from non-stem and CSC MCF7 cells; assay: Effect of topoisomerase I shRNA knockdown on tumor xenografts; type: in vivo; conditions: doxycycline-induced knockdown; xenografts in nude mice; FIG. 21A-B
# Source text: FIG. 21A-B. Evaluation of the effect of doxycycline-inducible shRNA targeting topoisomerase I in tumor xenografts generated from (A) non-stem MCF7 cells or (B) Oct3/4-GFP(+) MCF7 CSC cells.
# as §5
# topoisomerase I = assay: Doxycycline-induced shRNA knockdown of topoisomerase I expression (mRNA, Western blot); type: cell-based, human; conditions: FIGS. 17 and 18
# Source text: FIG. 17. Topoisomerase I expression in topoisomerase I shRNA-treated cells.
# FIG. 18. Western blot analysis of topoisomerase I expression in CSC and non-stem cell versions of MCF7, MDA-MB453, BTL12 and MDA-MB231 cells with or without doxycycline-induced (“dox”) shRNA knockdown.
# as §5
molecule,measurement,setting,value
"CCn1cnc2c(Nc3cccc(Cl)c3)nc(N[C@@H]3CCCC[C@@H]3N)nc21.Cl (relative stereo) [CGP74514A, N2-(cis-2-aminocyclohexyl)-N6-(3-chlorophenyl)-9-ethyl-9H-purine-2,6-diamine hydrochloride]",selectivity for Oct3/4-GFP(+) MCF7 cells in initial screening,[1],potentially selective agents
same,selective inhibition of Oct3/4-GFP+ MCF cells,Oct3/4-GFP+ MCF7 cells,Selective inhibition
"Cl.NCC1OC(C23CC4CC(CC(C4)C2)C3)Cc2c1ccc(O)c2O (stereo not shown) [A77636, 3-(1′-adamantyl)-1-aminomethyl-3,4-dihydro-5,6-dihydroxy-1H-2-benzopyran hydrochloride]",selective inhibition of growth of CSCs,[2],selectively inhibited growth of CSCs
same,selectivity for Oct3/4-GFP(+) MCF7 cells in initial screening,[1],potentially selective agents
same,selective inhibition of Oct3/4-GFP+ MCF cells,Oct3/4-GFP+ MCF7 cells,Selective inhibition
O=C1C=C(NCCN2CCOCC2)C(=O)c2ncccc21 [JUN1111],CSC-selective inhibitory activity,[3],CSC-selective inhibitory activity
NC(=S)N/N=C/c1ccc([N+](=O)[O-])s1 [NSC725],CSC-selective inhibitory activity,[4],CSC-selective inhibitory activity
same,CSC-selective inhibitory activity,[5],CSC-selective activity
Nc1nc(N)c2[nH]cnc2n1 [NSC743],CSC-selective inhibitory activity,[5],CSC-selective activity
COC(=O)[C@H]1[C@H]2C[C@@H]3c4[nH]c5cc(OC)ccc5c4CCN3C[C@H]2C[C@@H](OC(=O)c2cc(OC)c(OC)c(OC)c2)[C@@H]1OC [Reserpine],reduction of side population (SP) fractions,[6],> 70%
"CC(=O)c1c(O)c(C)c(O)c(Cc2c(O)c3c(c(C(=O)/C=C/c4ccccc4)c2O)OC(C)(C)C=C3)c1O [Rottlerin, (Z)-1-[6-[(3-acetyl-2,4,6-trihydroxy-5-methylphenyl)methyl]-5,7-dihydroxy-2,2-dimethylchromen-8-yl]-3-phenylpro-2-en-1-one]",selective inhibition of growth of CSCs,[2],selectively inhibited growth of CSCs
same,selectivity for Oct3/4-GFP(+) MCF7 cells in initial screening,[1],potentially selective agents
same,selective inhibition of Oct3/4-GFP+ MCF cells,Oct3/4-GFP+ MCF7 cells,Selective inhibition
CC(=O)O[C@H]1C(=O)[C@@]2(C)[C@H]([C@H](OC(=O)c3ccccc3)[C@]3(O)C[C@H](OC(=O)[C@H](O)[C@@H](NC(=O)c4ccccc4)c4ccccc4)C(C)=C1C3(C)C)[C@]1(OC(C)=O)CO[C@@H]1C[C@@H]2O [taxol],sensitivity of Oct3/4-GFP+MCF7 cells relative to MCF7 cells,[7],significantly more sensitive
CC1(C)CCC2=C(O1)c1ccccc1C(=O)C2=O [β-lapachone],selective inhibition of growth of CSCs,[2],selectively inhibited growth of CSCs
B1,effect of knockdown on CSCs relative to non-stem cells (viable cells),[8],more profound on CSCs relative to their non-stem cell counterparts
same,"reduction in tumor size, CSC-generated vs non-stem tumors",[9],proportionally greater for the CSC-generated tumors
same,tumor size,[9],decreased the size of tumors resulting from both non-stem and CSC MCF7 cells
same,topoisomerase I mRNA and protein expression,topoisomerase I,successfully knocked-down mRNA and protein expression
